From ChEMBL document CHEMBL4808169, “Discovery of Potent and Fast-Acting Antimalarial Bis-1,2,4-triazines” (J Med Chem, 2021)

Columns and labels:
[1] = Drug metabolism in human hepatocytes assessed as 3'-propoxy-5,5'-bi(1,2,4-triazin)-3-ol formation by LC-MS/MS(CID) analysis; format: ADME, cell-based, Hepatocyte
[2] = Drug metabolism in human liver microsomes assessed as 3'-propoxy-5,5'-bi(1,2,4-triazin)-3-ol formation by LC-MS/MS(CID) analysis; format: ADME, Microsome
[3] = Tmax in Swiss mouse at 27 mg/kg, po measured up to 24 hrs by LC-MS analysis; format: ADME, organism-based; conditions: in vivo
[4] = Drug metabolism in rat liver microsomes assessed as oxygenated metabolite M+16(1) formation by LC-MS/MS(CID) analysis; format: ADME, Microsome
[5] = tested on: Plasmodium falciparum; test: Antiplasmodial activity against Plasmodium falciparum K1 by 3H-incorporation growth inhibition assay; format: functional, organism-based; conditions: pooled result: one value given for 11 cell lines, strains, targets or settings

Drug metabolism [1]: Metabolite_Notdetected
Drug metabolism [2]: Metabolite_Notdetected
Tmax [3]: 1 h
Drug metabolism [4]: Metabolite_Detected
SMILES: CCCOc1nncc(-c2cnnc(OCCN(C)C)n2)n1
IC50 [5]: 23 nM
